Assay results reported in US4895931A, “Phospholipase A2 -inhibiting peptides” (Kyowa Hakko Kogyo Co., Ltd., priority 1988, dated 1990).
One block for each molecule: values may come before it. Where a SMILES comes first, the peptide text is derived from it.

Biological target: T1, porcine pancreas PLA2 (Sus scrofa, UniProt P00592)
T1 construct: purchased Sigma Chemical Co. P6534; host or cells: porcine pancreas
Test: PLA2-inhibiting activity (release of [1-14C] arachidonic acid from labelled phosphatidylcholine)
Type: biochemical
Conditions: for Inhibition ratio (Inhibition rate of test compound/Inhibition rate of Compound (IV)): Amount of sample: 100 mg, relative to Compound (IV) = 1.00
Description: A test compound was dissolved in 280 μl of 0.1M Tris-hydrochloride buffer (pH 8.8) containing 10 mM calcium chloride. To the solution was added a solution of 20 ng of porcine pancreas PLA2 (Sigma Chemical Co., catalog No. P6534) in 10 μl of the buffer having the same composition as above, followed by incubation at 37° C. for 10 minutes. To the resulting mixture was added a solution of 0.1 μCi of α-palmitoyl-β[1-^14 C] arachidonylphosphatidylcholine (54 μCi/μmol, NEN Research Products Co.) in 10 μl of the same buffer as above wherein micelles were formed, followed by incubation at 37° C. for 10 minutes. Then, 3 ml of a Dale reagent solution [2-propanol :n-heptane :1M sulfuric acid=40:10:1 v/v mixture; Methods in Enzymology 14, 167 (1969)] was added to stop the reaction, and 1.5 ml of n-heptane and 1 ml of water were added, followed by shaking. Radioactivity of the free [1-^14 C] arachidonic acid extracted to the heptane layer was measured. The value of this specific radioactivity is referred to as "a". Further, "b" and "c" refer to the specific radioactivity of the heptane layer obtained by adding the same amount of the buffer in place of the test compound solution and that of the heptane layer obtained by adding the same amount of the buffer in place of the test compound and PLA2, respectively. The inhibition rate (x) was calculated by the following equation: [formula]

T1 sequence (P00592 23-146): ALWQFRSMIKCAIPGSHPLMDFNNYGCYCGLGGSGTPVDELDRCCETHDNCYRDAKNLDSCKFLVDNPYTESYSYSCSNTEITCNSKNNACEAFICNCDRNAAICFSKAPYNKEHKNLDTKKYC

Molecule: CC[C@H](C)[C@H](N)C(=O)N[C@@H](CCC(=O)O)C(=O)N[C@H](C(=O)N[C@@H](CC(C)C)C(=O)N[C@@H](C)C(=O)N[C@@H](CO)C(=O)N[C@@H](CCCNC(=N)N)C(=O)N[C@H](C(=O)N[C@@H](CC(N)=O)C(=O)N[C@@H](CCCCN)C(=O)N[C@@H](CCC(=O)O)C(=O)N[C@H](C(=O)N[C@@H](CCCNC(=N)N)C(=O)N[C@@H](CC(=O)O)C(=O)N[C@H](C(=O)O)[C@@H](C)CC)[C@@H](C)CC)[C@@H](C)O)[C@@H](C)CC [V] (H-IEILASRTNKEIRDI-OH)
Inhibition ratio (Inhibition rate of test compound/Inhibition rate of Compound (IV)): 0.56

Molecule: CC[C@H](C)[C@H](N)C(=O)N[C@@H](CCCCN)C(=O)N[C@@H](C)C(=O)N[C@@H](Cc1ccccc1)C(=O)N[C@@H](Cc1ccc(O)cc1)C(=O)N[C@@H](CCC(N)=O)C(=O)N[C@@H](CCCCN)C(=O)N[C@@H](CCSC)C(=O)N[C@@H](Cc1ccc(O)cc1)C(=O)NCC(=O)N[C@H](C(=O)N[C@@H](CO)C(=O)N[C@@H](CC(C)C)C(=O)N[C@@H](CS)C(=O)N[C@@H](CCC(N)=O)C(=O)N[C@@H](C)C(=O)O)[C@@H](C)CC [XII] (H-IKAFYQKMYGISLCQA-OH)
IC50 compared with that of lipocortin (in words): almost equal to that of lipocortin
IC50 (read-out: IC50 (concentration required for inhibiting the PLA2 activity by 50%) (converted)): 1070 nM

Molecule: CC[C@H](C)[C@H](NC(=O)[C@H](CCCNC(=N)N)NC(=O)[C@@H](NC(=O)[C@H](CC(C)C)NC(=O)[C@H](C)NC(=O)[C@H](CCCCN)NC(=O)[C@H](Cc1c[nH]cn1)NC(=O)[C@H](CCCNC(=N)N)NC(=O)[C@@H](NC(=O)CNC(=O)[C@@H](NC(=O)CN)C(C)C)[C@@H](C)O)[C@@H](C)CC)C(=O)N[C@@H](CCSC)C(=O)N[C@H](C(=O)N[C@@H](CO)C(=O)N[C@@H](CCCNC(=N)N)C(=O)O)C(C)C [X] (H-GVGTRHKALIRIMVSR-OH; N-terminus and C-terminus assumed)
Inhibition ratio (Inhibition rate of test compound/Inhibition rate of Compound (IV)): 1.19

Molecule: CC(C)C[C@H](NC(=O)[C@H](C)NC(=O)[C@H](CCCCN)NC(=O)[C@H](CCCCN)NC(=O)[C@H](CC(C)C)NC(=O)[C@@H](NC(=O)[C@H](CCC(=O)O)NC(=O)[C@H](CC(=O)O)NC(=O)[C@H](CC(C)C)NC(=O)[C@@H]1CCCN1C(=O)[C@@H](N)CCCCN)[C@@H](C)O)C(=O)N[C@H](C(=O)NCC(=O)N[C@@H](Cc1c[nH]cn1)C(=O)N[C@@H](CC(C)C)C(=O)N[C@@H](CCC(=O)O)C(=O)O)[C@@H](C)O [IV] (H-KPLDETLKKALTGHLE-OH)
PLA2-inhibiting activity (in words): medium
Inhibition ratio (Inhibition rate of test compound/Inhibition rate of Compound (IV)): 1.00

Results, then the molecule that gave them:

Inhibition ratio (Inhibition rate of test compound/Inhibition rate of Compound (IV)): 1.06
Molecule: CC[C@H](C)[C@H](NC(=O)[C@H](C)NC(=O)[C@@H](NC(=O)[C@H](CC(C)C)NC(=O)[C@H](CS)NC(=O)[C@@H](N)CCCCN)[C@@H](C)O)C(=O)N[C@H](C(=O)N[C@@H](CCCCN)C(=O)N[C@@H](CS)C(=O)N[C@@H](C)C(=O)N[C@H](C(=O)N[C@@H](CO)C(=O)N[C@@H](CCCCN)C(=O)N1CCC[C@H]1C(=O)N[C@@H](C)C(=O)O)[C@@H](C)O)C(C)C [VIII] (H-KCLTAIVKCATSKPA-OH; N-terminus and C-terminus assumed)

Inhibition ratio (Inhibition rate of test compound/Inhibition rate of Compound (IV)): 0.20
Molecule: CC[C@H](C)[C@H](N)C(=O)N[C@@H](CCCCN)C(=O)N[C@@H](C)C(=O)N[C@@H](C)C(=O)N[C@@H](Cc1ccc(O)cc1)C(=O)N[C@@H](CC(C)C)C(=O)N[C@@H](CCC(N)=O)C(=O)N[C@@H](CCC(=O)O)C(=O)N[C@H](C(=O)NCC(=O)N[C@@H](CCCCN)C(=O)N1CCC[C@H]1C(=O)N[C@@H](CC(C)C)C(=O)N[C@@H](CC(=O)O)C(=O)N[C@@H](CCC(=O)O)C(=O)N[C@H](C(=O)N[C@@H](CC(C)C)C(=O)N[C@@H](CCCCN)C(=O)N[C@@H](CCCCN)C(=O)N[C@@H](C)C(=O)N[C@@H](CC(C)C)C(=O)N[C@H](C(=O)NCC(=O)N[C@@H](Cc1c[nH]cn1)C(=O)N[C@@H](CC(C)C)C(=O)N[C@@H](CCC(=O)O)C(=O)O)[C@@H](C)O)[C@@H](C)O)[C@@H](C)O [III] (H-IKAAYLQETGKPLDETLKKALTGHLE-OH)

IC50 (concentration required for inhibiting the PLA2 activity by 50%): 1.5 µg/mL
B1: rLC: lipocortin prepared using Escherichia coli according to the method of Wallner, et al. (protein, UniProt P04083 2-346, looked up)
Annexin A1: AMVSEFLKQAWFIENEEQEYVQTVKSSKGGPGSAVSPYPTFNPSSDVAALHKAIMVKGVDEATIIDILTKRNNAQRQQIKAAYLQETGKPLDETLKKALTGHLEEVVLALLKTPAQFDADELRAAMKGLGTDEDTLIEILASRTNKEIRDINRVYREELKRDLAKDITSDTSGDFRNALLSLAKGDRSEDFGVNEDLADSDARALYEAGERRKGTDVNVFNTILTTRSYPQLRRVFQKYTKYSKHDMNKVLDLELKGDIEKCLTAIVKCATSKPAFFAEKLHQAMKGVGTRHKALIRIMVSRSEIDMNDIKAFYQKMYGISLCQAILDETKGDYEKILVALCGGN
modifications: recombinant, E. coli
